Structures are written as SMILES.

Results on 17 compounds are retold here after patent US12384770B2, “Heterocyclic compound” (Takeda Pharmaceutical Company Limited, priority 2019, dated 2025).

One test concerns the target T1, HDAC6 enzyme (Homo sapiens, UniProt Q9UBN7).
T1 construct: HDAC6 enzyme prepared by transducing full length HDAC6 gene into Sf-9 insect cells; GST; purchased SignalChem; host or cells: Sf-9 insect cells
T1 sequence (Q9UBN7 1-1215): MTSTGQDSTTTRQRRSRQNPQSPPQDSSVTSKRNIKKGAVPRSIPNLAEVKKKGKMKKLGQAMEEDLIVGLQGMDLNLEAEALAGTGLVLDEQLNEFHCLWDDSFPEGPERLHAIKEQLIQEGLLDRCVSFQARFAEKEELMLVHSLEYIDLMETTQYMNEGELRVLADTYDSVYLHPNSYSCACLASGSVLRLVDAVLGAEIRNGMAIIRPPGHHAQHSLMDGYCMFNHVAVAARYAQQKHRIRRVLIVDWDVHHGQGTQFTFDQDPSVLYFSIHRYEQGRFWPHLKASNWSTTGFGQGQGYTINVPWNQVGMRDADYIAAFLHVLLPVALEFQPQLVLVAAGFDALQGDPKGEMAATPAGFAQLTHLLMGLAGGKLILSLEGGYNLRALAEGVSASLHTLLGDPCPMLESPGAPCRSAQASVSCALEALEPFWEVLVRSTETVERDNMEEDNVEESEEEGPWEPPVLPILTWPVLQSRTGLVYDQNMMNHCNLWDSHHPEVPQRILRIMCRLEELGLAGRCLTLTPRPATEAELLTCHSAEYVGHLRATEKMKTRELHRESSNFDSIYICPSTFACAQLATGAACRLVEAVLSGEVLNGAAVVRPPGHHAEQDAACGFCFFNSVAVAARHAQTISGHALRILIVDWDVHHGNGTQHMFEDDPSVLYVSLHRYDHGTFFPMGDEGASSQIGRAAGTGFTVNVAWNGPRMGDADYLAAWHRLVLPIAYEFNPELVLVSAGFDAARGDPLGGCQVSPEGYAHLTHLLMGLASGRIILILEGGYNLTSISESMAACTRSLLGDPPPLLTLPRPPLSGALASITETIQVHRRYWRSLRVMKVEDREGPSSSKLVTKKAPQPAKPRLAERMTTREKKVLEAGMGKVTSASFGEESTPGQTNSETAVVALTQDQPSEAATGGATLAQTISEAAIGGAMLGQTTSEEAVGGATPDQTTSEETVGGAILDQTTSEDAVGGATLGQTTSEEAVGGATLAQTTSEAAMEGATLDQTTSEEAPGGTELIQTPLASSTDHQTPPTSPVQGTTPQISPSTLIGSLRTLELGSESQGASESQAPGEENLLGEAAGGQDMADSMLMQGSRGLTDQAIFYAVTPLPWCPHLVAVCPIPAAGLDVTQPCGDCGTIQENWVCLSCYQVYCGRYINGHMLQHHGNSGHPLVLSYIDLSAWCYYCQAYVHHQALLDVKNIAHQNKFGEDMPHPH
Briefly: HDAC6 enzyme inhibitory assay (HDAC-Glo I/II Assay kit). The class given is biochemical. Conditions: wells without enzyme = 100% inhibition. The procedure: Experimental Example 1 HDAC6 Enzyme Inhibitory Assay
HDAC6 enzyme prepared by transducing full length HDAC6 gene into Sf-9 insect cells and purifying by GST affinity column were purchased from SignalChem. Using this enzyme, HDAC6 enzyme inhibitory activity of the compound of the present invention were evaluated. Enzymes were used after preserved at −70° C. HDAC6 enzyme inhibitory activity of the compound of the present invention was measured using HDAC-Glo™ I/II Assay kit (Promega) according to the following experimental method. The test compound diluted with assay buffer (24 mM Tris-HCl (pH 7.5), 1 mM MgCl2, 0.35 mM KCl, 135 mM NaCl, 0.6 mM Glutathione, 0.01% Tween-20) was added to a 384-well plate by each 2 μL. Then, HDAC6 enzyme solution diluted with assay buffer was added thereto by each 4 μL, and the plate was incubated at room temperature for 60 min. After incubated, HDAC substrate-Developer solution prepared according to Promega protocol attached to the assay kit was added to the 384-well plate by each 2 μL, and the enzyme reaction was started. After reacting at room temperature for 20 min, luminescence level was measured using plate reader Envision (PerkinElmer). The inhibitory activity of each compound of Example was calculated as a relative activity value when luminescence level in wells without enzyme is considered as 100% inhibition.
As for `O=C1c2cc(-c3nnc(C(F)F)o3)ccc2CN1[C@H](c1ccc(F)nc1)[C@@H](O)c1ccc(F)cc1` (single isomer, unassigned) [Example 35, 6-[5-(difluoromethyl)-1,3,4-oxadiazol-2-yl]-2-[(1R*,2S*)-2-(4-fluorophenyl)-1-(6-fluoropyridin-3-yl)-2-hydroxyethyl]-2,3-dihydro-1H-isoindol-1-one], the “HDAC6 inhibitory rate (%) (10 μM)” value is 100%. On the same count and under the same terms, in the case of `O=C1c2cc(-c3nnc(C(F)F)o3)ccc2CN1[C@H](c1cnccn1)[C@@H](O)c1ccccc1` (single isomer, unassigned) [Example 128, 6-[5-(difluoromethyl)-1,3,4-oxadiazol-2-yl]-2-[(1R*,2S*)-2-hydroxy-2-phenyl-1-(pyrazin-2-yl)ethyl]-2,3-dihydro-1H-isoindol-1-one] it was 99%.

The same test, now with this note: wells without enzyme = 100% inhibition, 10 µM.
In the case of `O=C1c2cc(-c3nnc(C(F)F)o3)ccc2CN1[C@H](c1ccc(F)cn1)[C@@H](O)c1cccc(F)n1` (single isomer, unassigned) [Example 67, 6-[5-(difluoromethyl)-1,3,4-oxadiazol-2-yl]-2-[(1R*,2R*)-1-(5-fluoropyridin-2-yl)-2-(6-fluoropyridin-2-yl)-2-hydroxyethyl]-2,3-dihydro-1H-isoindol-1-one], the “HDAC6 inhibitory rate (%) (10 μM)” value is 99%.

Still in this test, the particulars now being: wells without enzyme = 100% inhibition, read-out: HDAC6 inhibitory rate (%) (10 μM).
For the compound `O=C1c2cc(-c3nnc(C(F)F)o3)ccc2CN1[C@H](c1cccc(F)c1)[C@@H](O)c1ccccc1` (racemic) [Example 20, 6-[5-(difluoromethyl)-1,3,4-oxadiazol-2-yl]-2-[(1RS,2SR)-1-(3-fluorophenyl)-2-hydroxy-2-phenylethyl]-2,3-dihydro-1H-isoindol-1-one], the inhibition at 10 µM amounted to 100%.

Regarding `O=C1c2cc(-c3nnc(C(F)F)o3)ccc2CN1[C@H](c1ccc(F)cc1)[C@@H](O)c1ccc(C(F)(F)F)nc1` (single isomer, unassigned) [Example 54, 6-[5-(difluoromethyl)-1,3,4-oxadiazol-2-yl]-2-{(1R*,2S*)-1-(4-fluorophenyl)-2-hydroxy-2-[6-(trifluoromethyl)pyridin-3-yl]ethyl}-2,3-dihydro-1H-isoindol-1-one], the inhibition at 10 µM stood at 100%. The same measure, in the same setting: in the case of `O=C1c2cc(-c3nnc(C(F)F)o3)ccc2CN1[C@@H](c1ccccc1)[C@@H](O)c1ccccc1` [Example 13, 6-[5-(difluoromethyl)-1,3,4-oxadiazol-2-yl]-2-[(1S,2S)-2-hydroxy-1,2-diphenylethyl]-2,3-dihydro-1H-isoindol-1-one] it was 99%; in that of `O=C1c2cc(-c3nnc(C(F)F)o3)ccc2CN1[C@H](c1ccc(C(F)(F)F)nc1)[C@@H](O)c1ccc(F)cc1` (racemic) [Example 18, 6-[5-(difluoromethyl)-1,3,4-oxadiazol-2-yl]-2-{(1RS,2SR)-2-(4-fluorophenyl)-2-hydroxy-1-[6-(trifluoromethyl)pyridin-3-yl]ethyl}-2,3-dihydro-1H-isoindol-1-one], 99%; in that of `O=C1c2cc(-c3nnc(C(F)F)o3)ccc2CN1[C@H](c1ccc(F)cn1)[C@@H](O)c1ccccn1` (single isomer, unassigned) [Example 59, 6-[5-(difluoromethyl)-1,3,4-oxadiazol-2-yl]-2-[(1R*,2R*)-1-(5-fluoropyridin-2-yl)-2-hydroxy-2-(pyridin-2-yl)ethyl]-2,3-dihydro-1H-isoindol-1-one], 100%. Same read-out and setting: in the case of `O=C1c2cc(-c3nnc(C(F)F)o3)ccc2CN1[C@@H](c1ccccn1)[C@@H](O)c1cccc(F)c1` (racemic) [Example 145, 6-[5-(difluoromethyl)-1,3,4-oxadiazol-2-yl]-2-[(1SR,2SR)-2-(3-fluorophenyl)-2-hydroxy-1-(pyridin-2-yl)ethyl]-2,3-dihydro-1H-isoindol-1-one] it was 99%.

As to `O=C1c2cc(-c3nnc(C(F)F)o3)ccc2CN1[C@H](c1ccccn1)[C@@H](O)c1ccc(Cl)cn1` (single isomer, unassigned) [Example 112, 2-[(1R*,2R*)-2-(5-chloropyridin-2-yl)-2-hydroxy-1-(pyridin-2-yl)ethyl]-6-[5-(difluoromethyl)-1,3,4-oxadiazol-2-yl]-2,3-dihydro-1H-isoindol-1-one], the inhibition at 10 µM is 99%. Still for that read-out and setting: in the case of `O=C1c2cc(-c3nnc(C(F)F)o3)ccc2CN1[C@H](C1CCOCC1)[C@@H](O)c1ccc(Cl)cc1` (single isomer, unassigned) [Example 83, 2-[(1R*,2S*)-2-(4-chlorophenyl)-2-hydroxy-1-(oxan-4-yl)ethyl]-6-[5-(difluoromethyl)-1,3,4-oxadiazol-2-yl]-2,3-dihydro-1H-isoindol-1-one] it was 101%; in that of `O=C1c2cc(-c3nnc(C(F)F)o3)ccc2CN1[C@H](c1ncccn1)[C@H](O)c1cccc(F)c1` (racemic) [Example 136, 6-[5-(difluoromethyl)-1,3,4-oxadiazol-2-yl]-2-[(1RS,2RS)-2-(3-fluorophenyl)-2-hydroxy-1-(pyrimidin-2-yl)ethyl]-2,3-dihydro-1H-isoindol-1-one], 99%; in that of `O=C1c2cc(-c3nnc(C(F)F)o3)ccc2CN1[C@H](C1CCOCC1)[C@@H](O)c1ccc(F)c(Cl)c1` (racemic) [Example 107, 2-[(1RS,2SR)-2-(3-chloro-4-fluorophenyl)-2-hydroxy-1-(oxan-4-yl)ethyl]-6-[5-(difluoromethyl)-1,3,4-oxadiazol-2-yl]-2,3-dihydro-1H-isoindol-1-one], 101%. Regarding `O=C1c2cc(-c3nnc(C(F)F)o3)ccc2CN1[C@H](c1ccc(F)cc1)[C@@H](O)c1ccc(F)nc1` (racemic) [Example 58, 6-[5-(difluoromethyl)-1,3,4-oxadiazol-2-yl]-2-[(1RS,2SR)-1-(4-fluorophenyl)-2-(6-fluoropyridin-3-yl)-2-hydroxyethyl]-2,3-dihydro-1H-isoindol-1-one], the inhibition at 10 µM was found to be 100%. The same measure, in the same setting: in the case of `O=C1c2cc(-c3nnc(C(F)F)o3)ccc2CN1[C@H](c1ccc(F)cn1)[C@@H](O)c1cccc(F)n1` (single isomer, unassigned) [Example 66, 6-[5-(difluoromethyl)-1,3,4-oxadiazol-2-yl]-2-[(1R*,2R*)-1-(5-fluoropyridin-2-yl)-2-(6-fluoropyridin-2-yl)-2-hydroxyethyl]-2,3-dihydro-1H-isoindol-1-one] it was 100%; in that of `O=C1c2cc(-c3nnc(C(F)F)o3)ccc2CN1[C@H](c1cccnn1)[C@@H](O)c1ccc(F)c(F)c1` (single isomer, unassigned) [Example 108, 6-[5-(difluoromethyl)-1,3,4-oxadiazol-2-yl]-2-[(1R*,2S*)-2-(3,4-difluorophenyl)-2-hydroxy-1-(pyridazin-3-yl)ethyl]-2,3-dihydro-1H-isoindol-1-one], 100%. Same read-out and setting: in the case of `O=C1c2cc(-c3nnc(C(F)F)o3)ccc2CN1[C@H](c1ccc(F)cc1)[C@@H](O)c1ccc(F)nc1` (single isomer, unassigned) [Example 131, 6-[5-(difluoromethyl)-1,3,4-oxadiazol-2-yl]-2-[(1R*,2S*)-1-(4-fluorophenyl)-2-(6-fluoropyridin-3-yl)-2-hydroxyethyl]-2,3-dihydro-1H-isoindol-1-one] it was 99%.
